# Patent publication US6303596A, “Use of taurolidine for treatment of leukemias” (priority 2000, dated 2001)
# Like-named read-outs stand apart in the source and are kept apart here.
# Experiments:
# Assay type in all cases: cell-based, human
# MM6 cells = test: DNA fragmentation, agarose gel electrophoresis, MM6
# Experimental: FIG. 13 is an agarose gel depicting DNA fragmentation in response to taurolidine treatment as determined by assay procedures. MM6 cells were incubated with taurolidine or vehicle in RPMI+10% BCS for four hours. Cells were harvested and low molecular weight DNA extracted as described below. C=control cells without taurolidine or vehicle treatment; T=treated with 50 μg/ml taurolidine; V=treated with vehicle alone; and MW=molecular weight markers.
# Following treatment with either taurolidine or the vehicle solution, cell death was assessed in one of two ways. In the first method, the DNA fragmentation pattern characteristic of apoptosis was detected by extracting low molecular weight DNA from cells using a phosphate-citrate buffer (Darzynkiewicz, et al., "Assays of cell viability: discrimination of cells dying by apoptosis," Methods Cell Biol 41:15 (1994)) and subjecting the extracted DNA to agarose gel electrophoresis.
# Apoptosis is associated with fragmentation of genomic DNA in the internucleosomal linker regions, which can be visualized as a characteristic ladder of DNA fragments upon gel electrophoresis. Arends, M. J. and Wyllie, A. H., "Apoptosis: mechanisms and roles in pathology," Int Rev Exp Path 32:223 (1991). Accordingly, low molecular weight DNA was extracted from taurolidine-treated MM6 cells and subjected to electrophoresis in agarose gels.
# granulocytes = test: TUNEL / propidium iodide flow cytometry, granulocytes; details: for cytotoxicity at 100 µg/mL: Homo sapiens
# Experimental: Human granulocytes were isolated from heparinized blood by diluting blood 1:1 with 6% dextran to sediment RBC, then centrifuging to obtain leukocyte rich plasma. The remaining RBC were lysed by 20 second incubation with 0.2% NaCl. After lysis, NaCl was added to a final concentration of 0.9%, the sample was centrifuged, and the cell pellet resuspended in HBSS containing 0.5% HSA. An equal volume of Histopaque (Sigma) was layered underneath the cell suspension. Upon centrifugation, the PBMC remained above the Histopaque layer, while the granulocytes were sedimented. Purity of collected granulocytes was assayed by flow cytometry using PE-conjugated […].
# (§1) In the second method, DNA fragmentation was detected via TUNEL assay according to the manufacturer's instructions. With this methodology, 2×10^6 cells were fixed with 2% paraformaldehyde, permeabilized with 0.1% Triton X-100/0.1% citrate, incubated at 37° C. with terminal deoxynucleotidyl transferase and FITC-dUTP, rinsed and analyzed by flow cytometry. Enhanced FITC signal indicates apoptosis-specific DNA fragmentation. Gavriali, et al, "Identification of programmed cell death in situ via specific labeling of nuclear DNA fragmentation," J Cell Biol 119:493 (1992). Parallel aliquots of unfixed cells were treated with PI and FITC-conjugated anti-CD14 and analyzed by flow cytometry, in order to identify cells with permeable cell membranes (since PI binds to DNA but is excluded from cells with intact plasma membranes) and also to determine the cell-specificity of the apoptotic signal.
# The effect of taurolidine on granulocytes was assayed by TUNEL analysis on taurolidine-treated purified granulocytes. These experiments were conducted in culture medium rather than whole blood. Granulocytes were treated with 100 μg/ml taurolidine since it had been shown that this concentration of taurolidine is apoptogenic to peripheral blood monocytes treated in culture medium. TUNEL-positive granulocytes ranged from 2% to 30% in untreated samples, and varied according to blood donor. […] Therefore, the apoptogenic effect of taurolidine is not specific to monocytic cells.
# ^a Analysis by flow cytometry after staining cells with PI and
# processing for TUNEL. Data are mean ± SEM of 5 experiments.
# ECV304 = test: TUNEL / propidium iodide flow cytometry, ECV304; details: ECV304, 6 hours after treatment
# Experimental: as §1
# In another study, TUNEL assays were performed on all cell lines 6 hours after cells were initially exposed to taurolidine (cells were treated for 4 hours, rinsed, and then incubated for 2 more hours before TUNEL assay was performed).
# . Taurolidine and anisomycin induced apoptosis in MM6, HL-60, and Jurkat cells (Table VIII). MM6 and HL-60 cells were similarly effected, with >80% TUNEL-positive cells after 6 hours. […]
# Data are percent of total cell-size events, and are expressed as mean ± […]
smiles,measurement,setting,value
"O=S1(=O)CCN(CN2CCS(=O)(=O)NC2)CN1 [taurolidine, 4,4'-methylenebis(perhydro-1,2,4-thiadiazin 1,1-dioxide)]",DNA fragmentation ladder,"MM6 cells; MM6, 50 μg/ml taurolidine, 4 h, no LPS",prominent ladder pattern of DNA fragments
same,DNA fragmentation ladder,"MM6 cells; MM6, LPS present during taurolidine treatment",identical results
same,apoptosis of granulocytes,"granulocytes; 100 μg/ml taurolidine, within 6 h, culture medium",92%
same,cytotoxicity at 100 µg/mL,"granulocytes; 6 h, granulocytes, 100 μg/ml taurolidine, mean ± SEM of 5 experiments (Table VII), read-out: % propidium iodide positive",1.6 ± 0.5%
same,cytotoxicity at 100 µg/mL,"granulocytes; granulocytes, 100 μg/ml, 6 hours (Table V), read-out: % Propidium Iodide Positive Cells",2%
same,effectiveness in granulocytes relative to monocytes,"granulocytes; TUNEL, purified cells in culture medium",at least as effective
same,% TUNEL-positive,"granulocytes; granulocytes, 100 μg/ml taurolidine, mean ± SEM of 5 experiments (Table VII)",91.5 ± 3.5%
same,% TUNEL-Negative Cells,"granulocytes; granulocytes, 100 μg/ml, 6 hours (Table V)",8%
same,DNA fragmentation (TUNEL positivity),ECV304,did not demonstrate evidence for fragmentation of DNA
